Reference: patent publication US11970451B1, “6-(3-hydroxyphenyl)-2-methoxy-4-(3-methylphenyl)nicotinonitrile as an antimicrobial compound” (KING FAISAL UNIVERSITY, priority 2023, dated 2024)

What was measured:
Staphylococcus aureus = test: Antimicrobial screening by agar dilution; assay type: cell-based; settings: after 10, 20, 40 and 60 minutes at all dilutions 1:100, 1:200, 1:400, 1:800
Method: (§1) The antibacterial properties of the synthesized compound 6-(3-hydroxyphenyl)-2-methoxy-4-(3-methylphenyl)nicotinonitrile were studied by the method of agar dilution. Test solutions of each compound was prepared in concentration of 1% using dimethylformamide as a solvent then they are diluted in physiological solution to obtain the final experimental dilutions 1:100, 1:200, 1:400, 1:800. The effects of these substances are compared with furacillin in a controllable study. The testing microbes used were gram positive bacteria Staphylococcus aureus, gram negative bacteria Pseudomonas aeruginosa and Escherichia coli and Candida albicans fungus. The experiments used for this survey were meat-pentonlu agar (EPA) for cultivation of bacteria and Saburo environment for the fungus. Each experiment used 1 mL of test solution on each plate […]. Two drops of emulsified with microbes feel were added. All experimental samples were taken from the agar after 10, 20, 40, 60 minutes in the environment on the basis of Patrk planted. The bacteria were cultivated at a temperature of 37° C. for 1 day and the mushroom was kept in a thermostat for […] at a temperature of 28° C. Then results were checked.

Candida albicans = test: Antimicrobial screening by agar dilution; assay type: cell-based; settings: after 10, 20, 40 and 60 minutes at all dilutions 1:100, 1:200, 1:400, 1:800
Method: as §1

Escherichia coli = test: Antimicrobial screening by agar dilution; assay type: cell-based; settings: after 10, 20, 40 and 60 minutes at all dilutions 1:100, 1:200, 1:400, 1:800
Method: as §1

Pseudomonas aeruginosa = test: Antimicrobial screening by agar dilution; assay type: cell-based; settings: after 10, 20, 40 and 60 minutes at all dilutions 1:100, 1:200, 1:400, 1:800
Method: as §1

**Q.** For `COc1nc(-c2cccc(O)c2)cc(-c2cccc(C)c2)c1C#N` [6-(3-hydroxyphenyl)-2-methoxy-4-(3-methylphenyl)nicotinonitrile], which melting point is on record?
**A.** 205 to 207 °C

**Q.** What about the “inhibition activity (in words)” value (Staphylococcus aureus) of the same molecule?
**A.** highest inhibition activity

**Q.** And the “inhibition activity (in words)” value (Candida albicans)?
**A.** highest inhibition activity

**Q.** What about the “inhibition activity (in words)” value (Escherichia coli) of the same molecule?
**A.** highest inhibition activity

**Q.** What about the “inhibition activity (in words)” value (Pseudomonas aeruginosa) of the same molecule?
**A.** highest inhibition activity
